# Measurements taken from ChEMBL document CHEMBL1127974, “Design, synthesis, and activity of conformationally-constrained macrocyclic peptide-based inhibitors of HIV protease” (Bioorg Med Chem Lett, 1994).
# What was measured:
# [1] = molecular target: T1, Human immunodeficiency virus type 1 protease (Human immunodeficiency virus 1, UniProt Q72874); experiment: In vitro inhibition HIV-1 IIIB protease.
# [2] = test system: MT2; experiment: Effective concentration against HIV infected MT-2 cell line; type: functional, cell-based; conditions: Homo sapiens
# [3] = molecular target: T1, Human immunodeficiency virus type 1 protease; experiment: In vitro inhibitory activity of compound against HIV protease from BRU (IIIB) strain of HIV- 1 virus was determined
SMILES,IC50 [1] [nM],EC50 [2] [nM],IC50 [3] [nM]
CC(C)(C)NC(=O)[C@@H]1C[C@@H]2CCCC[C@@H]2CN1C[C@@H](O)[C@@H]1Cc2ccc(cc2)OCCCOc2cc3ccccc3cc2C(=O)N[C@@H](CC(N)=O)C(=O)N1,10,14,
CC(C)[C@@H]1NC(=O)/C=C\CCCOc2ccc(cc2)C[C@@H]([C@H](O)CN2CC3CCCCC3C[C@H]2C(=O)NC(C)(C)C)NC1=O (stereo partly drawn),7.3,36,
CC(C)(C)NC(=O)[C@@H]1CCCN1C[C@@H](O)[C@@H]1Cc2ccc(cc2)OCCCCOc2cc3ccccc3cc2C(=O)N[C@@H](CC(N)=O)C(=O)N1,900,,
CC(C)(C)NC(=O)[C@@H]1CCCN1C[C@@H](O)[C@@H]1Cc2ccc(cc2)OCCCOc2cc3ccccc3cc2C(=O)N[C@@H](CC(N)=O)C(=O)N1,400,,
CC(C)(C)NC(=O)[C@@H]1CCCN1C[C@H](O)[C@@H]1Cc2ccc(cc2)OCCCOc2cc3ccccc3cc2C(=O)N[C@@H](CC(N)=O)C(=O)N1,90000,,
CC(C)[C@@H]1NC(=O)CCCCCCOc2ccc(cc2)C[C@@H]([C@H](O)CN2CC3CCCCC3C[C@H]2C(=O)NC(C)(C)C)NC1=O (stereo partly drawn),1,4,
CC(C)[C@@H]1NC(=O)CCCCCOc2ccc(cc2)C[C@@H]([C@H](O)CN2CC3CCCCC3C[C@H]2C(=O)NC(C)(C)C)NC1=O (stereo partly drawn),1.5,8,
CC(C)(C)NC(=O)[C@@H]1C[C@@H]2CCCC[C@@H]2CN1C[C@@H](O)[C@@H]1Cc2ccc(cc2)OCCOc2cc3ccccc3cc2C(=O)N[C@@H](CC(N)=O)C(=O)N1,13,18,
CC(C)[C@@H]1NC(=O)/C=C\CCCCCOc2ccc(cc2)C[C@@H]([C@H](O)CN2CC3CCCCC3C[C@H]2C(=O)NC(C)(C)C)NC1=O (stereo partly drawn),25,216,
CC(C)(C)NC(=O)[C@@H]1CCCN1C[C@@H](O)[C@@H]1Cc2ccc(cc2)OCCOc2cc3ccccc3cc2C(=O)N[C@@H](CC(N)=O)C(=O)N1,450,,
CC(C)[C@@H]1NC(=O)CCCCCCCOc2ccc(cc2)C[C@@H]([C@H](O)CN2CC3CCCCC3C[C@H]2C(=O)NC(C)(C)C)NC1=O (stereo partly drawn),3.4,26,
CC(C)[C@H](NC(=O)c1ccc2ccccc2c1)C(=O)N[C@@H](Cc1ccccc1)[C@H](O)CN1CC2CCCCC2C[C@H]1C(=O)NC(C)(C)C (stereo partly drawn),0.9,8,
CC(C)[C@@H]1NC(=O)c2cc3ccccc3cc2OCCCOc2ccc(cc2)C[C@@H]([C@H](O)CN2CC3CCCCC3C[C@H]2C(=O)NC(C)(C)C)NC1=O (stereo partly drawn),5.5,17,
CC(C)[C@@H]1NC(=O)c2ccccc2OCCCOc2ccc(cc2)C[C@@H]([C@H](O)CN2CC3CCCCC3C[C@H]2C(=O)NC(C)(C)C)NC1=O (stereo partly drawn),8,20,
CC(C)(C)NC(=O)[C@@H]1C[C@@H]2CCCC[C@@H]2CN1C[C@@H](O)[C@H](Cc1ccccc1)NC(=O)[C@H](CC(N)=O)NC(=O)c1ccc2ccccc2n1,,5,
CC(C)(C)NC(=O)[C@@H]1C[C@@H]2CCCC[C@@H]2CN1C[C@@H](O)[C@@H]1Cc2ccc(cc2)OCCCCOc2cc3ccccc3cc2C(=O)N[C@@H](CC(N)=O)C(=O)N1,88,315,
CC(C)[C@@H]1NC(=O)/C=C\CCCCOc2ccc(cc2)C[C@@H]([C@H](O)CN2CC3CCCCC3C[C@H]2C(=O)NC(C)(C)C)NC1=O (stereo partly drawn),,31,9
CC(=O)N[C@H](C(=O)N[C@@H](Cc1ccccc1)[C@H](O)CN1CC2CCCCC2C[C@H]1C(=O)NC(C)(C)C)C(C)C (stereo partly drawn),3,29,
CCCCCCC(=O)N[C@H](C(=O)N[C@@H](Cc1ccccc1)[C@H](O)CN1CC2CCCCC2C[C@H]1C(=O)NC(C)(C)C)C(C)C (stereo partly drawn),6,378,
